Experiments:
[1] = test system: CT26 colon carcinoma cells; assay: CT26 lung metastasis survival model, subcutaneous CDN; assay type: in vivo, BALB/c mice; conditions: CT26 intravenous, 25 μg subcutaneous at base of the tail, day 1 and one week later, log-rank test, FIG. 19A
Description: To further assess the ability of the derivative molecules to promote anti-tumor immunity, CT26 colon carcinoma cells (2×10^5 cells in 100 μL PBS) were implanted by intravenous injection into 6-8 week old female BALB/c mice and assessed for overall survival. The CDN compounds (25 μg in a total volume of 100 μL HBSS) were administered one day post tumor implantation by subcutaneous injection into the base of the tail. Mice were boosted with an additional injection one week later for a total of two vaccinations.

[2] = test system: human STING variants (WT, REF, HAQ, AQ and Q); assay: IFNβ-LUC reporter in HEK293T cells expressing human STING alleles; assay type: cell-based; conditions: 10 μM, digitonin permeabilization, 6 hrs, FIG. 14
Description: MSCV2.2 plasmids encoding hSTING(REF)-GFP, hSTING(WT)-GFP, hSTING(HAQ)-GFP, hSTING(Q)-GFP and mSTING(WT)-GFP were obtained from the Vance Laboratory at UC Berkeley. hSTING(AQ)-GFP was derived from hSTING(Q)-GFP using a QuickChange Site-Directed Mutagenesis kit (Stratagene). […] 1×10^4 HEK293T STING cells were seeded in 96-well plates and transiently transfected (using Lipofectamine 2000) with 50 ng of a human IFN-β reporter plasmid (pLuc-IFN-β) expressing the human IFN-β promoter upstream of a luciferase reporter and 10 ng of TK-renilla for normalization. 24 hours later, cells were stimulated with native and synthetic CDN derivative molecules using digitonin permeabalization to ensure uniform uptake. Each STING cell line was stimulated with 10 μM of cyclic [G(3′,5′)pA(3′,5′)p] (cGAMP), cyclic [G(2′,5′)pA(3′,5′)p] […] (RR-CDA), cyclic [A(2′,5′)pA(3′,5′)p] […] (RR-CDG), cyclic [G(2′,5′)pG(3′,5′)p] […] (ML RR-CDG) in 25 ul digitonin buffer (50 mM HEPES, 100 mM KCL, 3 mM MgCl2, 0.1 mM DTT, 85 mM Sucrose, 0.2% BSA, 1 mM ATP, 0.1 mM GTP, 10 ug/ml digitonin). After 20 min, the stimulation mixtures were removed and 200 ul of standard RPMI media was added. After stimulation for 6 hrs, cell lysates were prepared and reporter gene activity measured using the Dual Luciferase Assay System (Promega) on a Spectramax M3 luminometer.

[3] = test system: natural killer (NK) cells, CD4+ and CD8+ T cells; assay: Surface CD69 upregulation on lymphocytes after subcutaneous CDN (FACS); assay type: in vivo, BALB/c mice; conditions: 50, 5 and 0.5 μM in 100 μL, base of the tail, 24 hours, FIG. 11
Description: To determine the relative ability of the derivative molecules to activate immune responses, CDN compounds were administered to 6-8 week old female BALB/c mice (in a total volume of 100 μL in HBSS) at doses of 50, 5 and 0.5 μM by subcutaneous injection into the base of the tail. Mice were assessed 24 hours later for lymphocyte immune cell activation by fluorescent activated cell sorting (FACS) for upregulation of surface CD69 expression on natural killer (NK) cells, CD4+ and CD8+ T cells, as compared to IgG1 isotype controls.

[4] = test system: B16 melanoma cells; assay: B16 melanoma subcutaneous tumor model, intratumoral CDN; assay type: in vivo, C57BL/6 mice; conditions: 25 μg intratumoral, three injections, FIG. 18; for anti-tumor efficacy (tumor volume): every three days
Description: To assess the ability of the derivative molecules to promote anti-tumor immunity, B16 melanoma cells (5×10^4 cells in 100 μL PBS) were implanted subcutaneously on the lower back of 6-8 week old female C57BL/6 mice (8 mice per group). Treatments began when tumors reached a volume of approximately 75 mm^3, on day 14 post tumor implantation. The CDN compounds were administered (25 μg in a total volume of 40 μL HBSS) by subcutaneous injection into the center of the tumor using a 27 gauge needle. Injections were repeated every three days, for a total of three intratumoral injections. The CDNs tested were cyclic [G(3′,5′)pG(3′,5′)p] (CDG); cyclic [G(2′,5′)pG(3′,5′)p] (mixed linkage, or ML CDG); Rp, Rp dithio cyclic [G(2′,5′)pG(3′,5′)p] (ML RR-CDG); cyclic [A(3′,5′)pA(3′,5′)p] (CDA); cyclic [A(2′,5′)pA(3′,5′)p] (mixed linkage, or ML CDA); and Rp, Rp dithio cyclic [A(2′,5′)pA(3′,5′)p] (ML RR-CDA).
To determine whether the effects of the derivative molecules are STING-dependent, B16 melanoma cells (5×10^4 cells in 100 μL PBS) were implanted on the right flanks of 6-8 week old female goldenticket STING^−/− mice, or wild-type C57BL/6 control mice (5 mice per group). Treatments began when tumors reached a volume of approximately 75 mm^3, on day 14 post tumor implantation. The compounds administered were Rp, Rp dithio cyclic [G(2′,5′)pG(3′,5′)p] (ML RR-CDG) (25 μg in a total volume of 40 μL HBSS), Rp, Rp dithio cyclic [A(2′,5′)pA(3′,5′)p] (ML RR-CDA) (50 μg in a total volume of 40 μL HBSS), the TLR9 agonist CpG 1668 (50 μg in a total volume of 40 μL HBSS), or HBSS vehicle control. Mice were treated by subcutaneous injection into the center of tumor only using a 27 gauge needle. Injections were repeated every three days, for a total of three intratumoral injections.

Nc1nc2c(ncn2[C@@H]2O[C@@H]3CO[P@@](O)(=S)O[C@@H]4[C@H](O)[C@@H](CO[P@@](O)(=S)O[C@H]3[C@H]2O)O[C@H]4n2cnc3c(=O)[nH]c(N)nc32)c(=O)[nH]1 [ML RR-CDG, dithio-[RP,RP]-cyclic-[G(2′,5′)pG(3′,5′)p]]
survival rates [1]: significantly higher survival rates compared to the cyclic [G(2′,5′)pG(3′,5′)p] (ML CDG) molecule
IFNβ reporter activity, all human STING alleles [2]: strongly induce IFNβ reporter activity by all human STING alleles
immune cell activation (surface CD69 on NK, CD4+ and CD8+ T cells) [3]: potent immune activation of NK and T cells in a dose-dependent manner
anti-tumor efficacy (tumor volume) [4]: potent anti-tumor efficacy
tumor status by day 44 post tumor implantation [4]: mice remained nearly tumor-free

Nc1ncnc2c1ncn2[C@@H]1O[C@@H]2COP(O)(=S)O[C@@H]3C(O)[C@@H](COP(O)(=S)O[C@H]2[C@H]1O)O[C@H]3n1cnc2c(N)ncnc21 (stereo partly shown) [ML RR-CDA, dithio-[RP, RP]-cyclic-[A(2′,5′)pA(3′,5′)p]]
survival rates [1]: significantly higher survival rates compared to the cyclic [A(2′,5′)pA(3′,5′)p] (ML CDA) molecule
IFNβ reporter activity, all human STING alleles [2]: strongly induce IFNβ reporter activity by all human STING alleles
immune cell activation (surface CD69 on NK, CD4+ and CD8+ T cells) [3]: induced NK and T cell activation, although to a lesser extent than the ML RR-CDG molecule
anti-tumor efficacy (tumor volume) [4]: potent anti-tumor efficacy
tumor rejection ([4]; P=0.0004, student's t-test): significantly more tumor rejection than the ML CDA derivative
